Reference: US7009088B1, “Methods of modulating auxin production in plants” (priority 2000, dated 2006)
pKd: −log10 of the molar value.

What was measured:
Arabidopsis seedlings = experiment: Seedling growth on media supplemented with IAN (auxin phenotype); type: in vivo
Excerpt: Four nitrilases, differentially expressed during development and in response to environmental cues, catalyze hydrolysis of IAN to IAA in Arabidopsis (Bartel and Fink (1994) Proc. Natl. Acad. Sci. USA 91:6649–6653). The nitl mutant is insensitive to the auxin effects of exogenously applied […] at the seedling stage (Normanly et al. (1997) Plant Cell 9:1781–1790). In accordance with the observed insensitivity of nit1 seedlings to IAN, NIT1 is most strongly expressed in the hypocotyl near the junction with the root in young seedlings as well as in the cotyledons. In contrast, NIT2 and NIT3 are expressed primarily in the cotyledons and NIT4 is expressed in the root tip (Bartel and Fink (1994) Proc. Natl. Acad. Sci. USA 91:6649–6653).

NIT1 = molecular target: T1, NIT1 (Arabidopsis thaliana, UniProt P32961); settings: cited from earlier work
T1 sequence (P32961 1-346): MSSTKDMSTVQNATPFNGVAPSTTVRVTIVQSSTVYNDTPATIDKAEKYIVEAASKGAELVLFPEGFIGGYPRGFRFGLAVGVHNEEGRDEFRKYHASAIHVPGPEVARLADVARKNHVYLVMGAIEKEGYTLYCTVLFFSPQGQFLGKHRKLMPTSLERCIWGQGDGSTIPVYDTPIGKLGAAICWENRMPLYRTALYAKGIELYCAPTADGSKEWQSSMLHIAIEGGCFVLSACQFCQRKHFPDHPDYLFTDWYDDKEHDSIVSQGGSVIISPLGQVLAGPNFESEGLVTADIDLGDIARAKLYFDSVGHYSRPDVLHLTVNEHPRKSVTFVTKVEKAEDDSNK

NIT2 = molecular target: T2, NIT2 (Arabidopsis thaliana, UniProt P32962); settings: cited from earlier work
T2 sequence (P32962 1-339): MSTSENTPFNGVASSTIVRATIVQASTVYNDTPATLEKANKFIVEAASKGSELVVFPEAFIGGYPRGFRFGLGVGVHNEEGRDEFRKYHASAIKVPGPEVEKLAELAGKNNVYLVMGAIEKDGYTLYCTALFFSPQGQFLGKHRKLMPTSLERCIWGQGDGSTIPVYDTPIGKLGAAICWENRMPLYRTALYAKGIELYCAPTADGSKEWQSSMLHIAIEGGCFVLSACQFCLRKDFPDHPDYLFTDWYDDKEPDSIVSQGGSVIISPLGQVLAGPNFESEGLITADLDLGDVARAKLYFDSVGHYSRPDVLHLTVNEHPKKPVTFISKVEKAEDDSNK

CYP83B1 [1] = molecular target: T3, CYP83B1 (Arabidopsis thaliana, UniProt O65782); experiment: CYP83B1 catalysis of [5-3H]indole-3-acetaldoxime metabolism in yeast microsomes
T3 sequence (O65782 1-499): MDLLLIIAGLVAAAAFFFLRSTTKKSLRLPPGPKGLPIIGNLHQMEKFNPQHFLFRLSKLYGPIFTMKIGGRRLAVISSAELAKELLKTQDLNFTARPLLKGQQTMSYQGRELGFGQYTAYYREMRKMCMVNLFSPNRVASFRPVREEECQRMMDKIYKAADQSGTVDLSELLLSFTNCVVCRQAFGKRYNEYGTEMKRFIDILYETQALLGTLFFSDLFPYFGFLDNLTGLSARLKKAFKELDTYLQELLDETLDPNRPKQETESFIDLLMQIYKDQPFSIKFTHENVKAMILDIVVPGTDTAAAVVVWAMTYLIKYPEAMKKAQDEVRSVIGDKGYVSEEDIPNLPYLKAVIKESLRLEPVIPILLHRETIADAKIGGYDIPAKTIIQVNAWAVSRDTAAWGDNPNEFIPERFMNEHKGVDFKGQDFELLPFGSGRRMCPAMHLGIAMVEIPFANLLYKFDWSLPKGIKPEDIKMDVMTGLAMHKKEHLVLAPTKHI
Experimental: (§1) FIG. 3. (A) Analysis of CYP83B1 by optical difference spectroscopy. […] After incubation for 10 min at 28° C. reaction mixtures were extracted with ethylacetate and analyzed by TLC. (s) substrate, (p) product.
After incubation, reaction mixtures were stopped by adding SDS to 0.4% and were analyzed by thin layer chromatography (TLC). TLC plates were developed in chloroform/methanol/water (85:14:1) and radioactive bands visualized by autoradiography.
Reactions were stopped and extracted with ethylacetate. Aliquots of the substrate-containing ethylacetate phase and product-containing water phase were subjected to liquid scintillation counting.

CYP83B1 [2] = molecular target: T3, CYP83B1; experiment: Optical difference (binding) spectroscopy of yeast microsomes containing CYP83B1
Experimental: as §1

wild type seedlings = experiment: Indole glucosinolate levels in seedlings grown on MS agar, quantified as SCN; type: in vivo, Arabidopsis; settings: wild type seedlings germinated on MS media with 100 μM compound, two week old, versus wild type
Experimental: FIG. 6. Indole glucosinolate levels are affected by CYP83B1 expression. Indole glucosinolates in individual two week old seedlings grown on MS agar were quantified calorimetrically as SCN. 1) Wild type, 2) rnt1-1, 3) molecularly complemented line 3.25.11, 4) overexpression line 1.4.7, and 5) wild type grown on 100 μM tryptamine. Data are represented as the mean±S.E, (n=10 seedlings). Except for the molecularly complemented line 3.25.11, mean indole glucosinolate values all differ from wild type seedling values at a 1% confidence value (t-test).
Tryptophan-derived indole-3-acetaldoxime is also an intermediate in the biosynthesis of indole glucosinolates.

## N#CCc1c[nH]c2ccccc12 [IAN, indole-3-acetonitrile]
Arabidopsis seedlings; rnt1-1 seedlings on 50 μM
  effect on germination / IAA phenotype: almost completely inhibiting germination
Arabidopsis seedlings; wild type seedlings on media supplemented with 50 μM
  seedling phenotype: phenocopy rnt1-1 seedlings
NIT1
  Km for IAN hydrolysis: in the mM range
NIT2
  Km for IAN hydrolysis: in the mM range

## ON=CCc1c[nH]c2ccccc12 [indole-3-acetaldoxime]
CYP83B1 [1]; in the presence of cysteine, 2.2 nM CYP83B1, 1 min at 28° C.
  turnover: 53 min⁻¹
CYP83B1 [1]; read-out: Michaelis-Menten constant Km, in the presence of cysteine, 2.2 nM CYP83B1, 1 min at 28° C.
  Km: 3 µM
CYP83B1 [2]
  pKd: 6.70

## NCCc1c[nH]c2ccccc12 [tryptamine]
CYP83B1 [1]; 17.5 mM tryptamine, 35 μM [5-3H]indole-3-acetaldoxime, 22 nM CYP83B1, 10 min at 28° C., TLC
  inhibition of indole-3-acetaldoxime oxidation: inhibitor
Wild type seedlings
  indole glucosinolate levels: reduced levels
CYP83B1 [2]
  pKd: 4.62
